# Measured values as given in patent publication US20210009914A1, “NOVEL APPLICATIONS OF PULSED ELECTRIC FIELD AND E-BEAM TECHNOLOGY” (KEMIN INDUSTRIES, INC., priority 2019, published 2021).
# Tests used:
# Total Enterobacteriaceae [1] = assay: Total Enterobacteriaceae count in naturally contaminated broiler feed, antimicrobial products with/without PEF (Example 1); format: cell-based
# Method: (§1) Feed materials. Pig feed, naturally contaminated with Enterobacteriaceae, was obtained from Feed Design Lab (the Netherlands). The naturally contaminated pig feed, not treated with an antimicrobial product, was diluted with mash broiler feed obtained from AVEVE until the required contamination level was obtained (Enterobacteriaceae contamination of 4 log cfu/g). After this dilution, the mash feed was mixed intensively to ensure a homogeneous contamination.
# PEF treatments. PEF experiments were carried out using the PEFPilot™ System (220V, 50 Hz) at ELEA GmbH (Quakenbrück, Germany) at room temperature. The feed was stored at room temperature (20-25° C.) before treatment. An amount of 50 percent additional water (tap-water at room temperature), was added to the feed to prevent the formation of air bubbles, which increase the chance for a dielectric breakdown and arching. Before PEF treatment, the treatment chamber was filled with the feed, the feed was leveled and pressed using a plastic stick. […] Exponential decay pulses with width of 40 microseconds and frequency of 2 Hz were applied. An electric field strength of 5 kV/cm and specific energies of 12 (60 pulses), 120 (600 pulses) and 168 kJ/kg (840 pulses) were applied. The treatment chamber was rinsed after each treatment and pre-cooled in ice-water before new feed samples were added. Each PEF treatment consisted of at least two replicates. The temperature of the feed was measured just after the PEF treatment.
# (§2) Application of antimicrobial products. The products were sprayed on a thin layer of the feed (portions of 300 g) by use of a nebulizer. The product Sal CURB® Ba Liquid (lot number: 1911110883) was dosed at 6 kg/T. Formic acid 85% (RM00672, lot 20000200403), the main component of Sal CURB Ba Liquid (i.e. 50% formic acid) was dosed at 3 kg/T and 6 kg/T. Sal CURB Ba Liquid also contains a mixture of different surfactants.
# Test setups. The effect of the application of the antimicrobials alone on the naturally contaminated feed was tested in a separate experiment. In a first series of PEF experiments (first trial), the antimicrobial products were sprayed on the feed just after applying the PEF treatments, while for the second series of experiments (second trial) the antimicrobial products were applied on the feed before the PEF treatments.
# (§3) Determination of total Enterobacteriacea level. The total Enterobacteriaceae level (TEC) of the feed samples not treated and treated with the antimicrobial products and/or PEF was determined at 24 h after PEF/product treatments. Three suspensions of each feed sample were prepared by mixing 10 g of the sample with 90 g of saline and by homogenizing the samples for 60 seconds in a Stomacher. RAPID' Enterobacteriaceae plates (Bio-Rad, 3564004) were inoculated using a spiral plate counter (Eddy Jet, IUL Instruments). The plates were incubated overnight at 37° C. for 24 h. After incubation, the colonies were counted manually. To obtain accurate results, the minimum number of colonies counted per plate was specified as 10 (a lower number gives less statistically significant results). Values below this limit, at the lowest sample dilution (100 cfu/g), were reported to a value equal to half of this limit (50 cfu/g). The colony-forming units were log-transformed prior to the statistical analyses. The microbiological data were analyzed using the Statgraphics Centurion XVI software (Statpoint Technologies, Inc., Virginia, USA). All data were subjected to one-way ANOVA and differences were separated using the least significant differences procedure. All statements of significance were based on a P-value less than 0.05, unless otherwise specified.
# Total Enterobacteriaceae [2] = assay: Total Enterobacteriaceae count in naturally contaminated broiler feed, products before PEF at reduced additional water (Example 2); format: cell-based; details: 3 kg/T before PEF 5 kV/cm, medium 120 kJ/kg; for Log reduction: vs control of same water level
# Method: as §1
# as §2, with “500” for “300”, “191111883)” for “1911110883)”, “surfactants. After treatment, the samples were sent to ELEA GmbH (Quakenbrück, Germany) for PEF treatments.” for “surfactants.”
# PEF treatments. PEF experiments were carried out using the PEFPilot™ System (220V, 50 Hz) at ELEA GmbH (Quakenbrück, Germany) at room temperature. The PEF treatments were performed at 8 days after application of the antimicrobial products. The feed samples were stored at room temperature (20-25° C.) before PEF treatment. Each PEF treatment consisted of at least two replicates. Quantities of 50, 20 and 15 percent additional water (tap-water at room temperature), were added to the feed to prevent the formation of air bubbles, which increase the chance for a dielectric breakdown and arching. Before PEF treatment, the treatment chamber was filled with the feed, the feed was leveled and pressed using a plastic stick. […] Exponential decay pulses with width of 40 microseconds and frequency of 2 Hz were applied. An electric field strength of 5 kV/cm and a specific energetic level of 120 kJ/kg (600 pulses) was applied. The treatment chamber was rinsed after each treatment and pre-cooled in ice-water before new feed samples were added.
# Test setups. The antimicrobial products were always applied on the feed before the PEF treatments. The different quantities of added tap-water were mixed homogeneously in the feed just before the PEF treatments. After the treatments, all feed samples were stored at room temperature.
# as §3, with “products” for “products and/or PEF”, “at 10 days after product treatment. The TEC of the PEF treated samples was determined at 48” for “at 24”, “after PEF treatment.” for “after PEF/product treatments.”, “counted manually, as explained in the Internal Instruction.” for “counted manually.”
smiles,measurement,setting,value
O=CO [Formic acid],Log (cfu/g),"Total Enterobacteriaceae [1]; 3 kg/T applied after PEF 5 kV/cm, high intensity 168 kJ/kg, 50% additional water",3.34 h Log (cfu/g)
same,Log reduction,"Total Enterobacteriaceae [1]; 3 kg/T applied after PEF 5 kV/cm, high intensity 168 kJ/kg, vs no-treatment control",0.92 log
same,Log (cfu/g),"Total Enterobacteriaceae [1]; 3 kg/T applied after PEF 5 kV/cm, low intensity 12 kJ/kg, 50% additional water",3.94 de Log (cfu/g)
same,Log reduction,"Total Enterobacteriaceae [1]; 3 kg/T applied after PEF 5 kV/cm, low intensity 12 kJ/kg, vs no-treatment control",0.32 log
same,Log (cfu/g),"Total Enterobacteriaceae [1]; 3 kg/T applied after PEF 5 kV/cm, medium intensity 120 kJ/kg, 50% additional water",4.10 ad Log (cfu/g)
same,Log reduction,"Total Enterobacteriaceae [1]; 3 kg/T applied after PEF 5 kV/cm, medium intensity 120 kJ/kg, vs no-treatment control",0.16 log
same,Log (cfu/g),"Total Enterobacteriaceae [1]; 3 kg/T applied before PEF 5 kV/cm, high intensity 168 kJ/kg, 50% additional water",2.95 d Log (cfu/g)
same,Log reduction,"Total Enterobacteriaceae [1]; 3 kg/T applied before PEF 5 kV/cm, high intensity 168 kJ/kg, vs no-treatment control",2.14 log
same,Log (cfu/g),"Total Enterobacteriaceae [1]; 3 kg/T applied before PEF 5 kV/cm, medium intensity 120 kJ/kg, 50% additional water",3.58 c Log (cfu/g)
same,Log reduction,"Total Enterobacteriaceae [1]; 3 kg/T applied before PEF 5 kV/cm, medium intensity 120 kJ/kg, vs no-treatment control",1.51 log
same,Log (cfu/g),"Total Enterobacteriaceae [1]; 3 kg/T, no PEF, 50% additional water (Table 5, trial 2)",4.15 b Log (cfu/g)
same,Log reduction,"Total Enterobacteriaceae [1]; 3 kg/T, no PEF, vs no-treatment control (Table 5, trial 2)",0.94 log
same,Log (cfu/g),"Total Enterobacteriaceae [1]; 3 kg/T, product alone, no PEF (Table 3)",3.80 ab Log (cfu/g)
same,Log reduction,"Total Enterobacteriaceae [1]; 3 kg/T, product alone, no PEF, vs untreated control (Table 3)",0.37 log
same,Log (cfu/g),"Total Enterobacteriaceae [1]; 6 kg/T applied after PEF 5 kV/cm, high intensity 168 kJ/kg, 50% additional water",3.06 i Log (cfu/g)
same,Log reduction,"Total Enterobacteriaceae [1]; 6 kg/T applied after PEF 5 kV/cm, high intensity 168 kJ/kg, vs no-treatment control",1.20 log
same,Log (cfu/g),"Total Enterobacteriaceae [1]; 6 kg/T applied after PEF 5 kV/cm, low intensity 12 kJ/kg, 50% additional water",4.03 ade Log (cfu/g)
same,Log reduction,"Total Enterobacteriaceae [1]; 6 kg/T applied after PEF 5 kV/cm, low intensity 12 kJ/kg, vs no-treatment control",0.23 log
same,Log (cfu/g),"Total Enterobacteriaceae [1]; 6 kg/T applied after PEF 5 kV/cm, medium intensity 120 kJ/kg, 50% additional water",3.71 fg Log (cfu/g)
same,Log reduction,"Total Enterobacteriaceae [1]; 6 kg/T applied after PEF 5 kV/cm, medium intensity 120 kJ/kg, vs no-treatment control",0.55 log
same,Log (cfu/g),"Total Enterobacteriaceae [1]; 6 kg/T applied before PEF 5 kV/cm, high intensity 168 kJ/kg, 50% additional water",1.70 f^ Log (cfu/g)
same,Log reduction,"Total Enterobacteriaceae [1]; 6 kg/T applied before PEF 5 kV/cm, high intensity 168 kJ/kg, vs no-treatment control",3.39 log
same,Log (cfu/g),"Total Enterobacteriaceae [1]; 6 kg/T applied before PEF 5 kV/cm, medium intensity 120 kJ/kg, 50% additional water",2.25 e Log (cfu/g)
same,Log reduction,"Total Enterobacteriaceae [1]; 6 kg/T applied before PEF 5 kV/cm, medium intensity 120 kJ/kg, vs no-treatment control",2.84 log
same,Log (cfu/g),"Total Enterobacteriaceae [1]; 6 kg/T, no PEF, 50% additional water (Table 5, trial 2)",3.55 c Log (cfu/g)
same,Log reduction,"Total Enterobacteriaceae [1]; 6 kg/T, no PEF, vs no-treatment control (Table 5, trial 2)",1.54 log
same,Log (cfu/g),"Total Enterobacteriaceae [1]; 6 kg/T, product alone, no PEF (Table 3)",3.33 b Log (cfu/g)
same,Log reduction,"Total Enterobacteriaceae [1]; 6 kg/T, product alone, no PEF, vs untreated control (Table 3)",0.84 log
same,Log (cfu/g),Total Enterobacteriaceae [2]; 15% additional water,2.83 c Log (cfu/g)
same,Log reduction,Total Enterobacteriaceae [2]; 15% additional water,1.44 log
same,Log reduction,"Total Enterobacteriaceae [2]; 15% additional water, listed as formic acid",1.4 log
same,Log (cfu/g),Total Enterobacteriaceae [2]; 20% additional water,2.30 d Log (cfu/g)
same,Log reduction,Total Enterobacteriaceae [2]; 20% additional water,2.20 log
same,Log (cfu/g),Total Enterobacteriaceae [2]; 50% additional water,2.82 c Log (cfu/g)
same,Log reduction,Total Enterobacteriaceae [2]; 50% additional water,1.60 log
